Assay results taken from paper PMC8536124 (International Journal of Molecular Sciences, 2021).
Marks after values point to notes of the source that are not given here.

Tests used:
[1] = tested on: BAK gene, A375; test: Gene expression by qRT-PCR; assay type: cell-based, human; details: 1 μM, mean 2^∆∆Ct, DMSO 5.200
Source text: (§1) Apoptosis at the cellular level can be initiated through the mitochondrial intrinsic pathway, which involves the Bcl-2 family of genes that includes the anti-apoptotic Bcl-XL and Bcl-2, as well as the pro-apoptotic Bak and Bax members; the balance between the expressions of anti- and pro-apoptotic proteins ensures physiological cell death. In cancers, the alterations occurring in gene expressions due to down- or up-regulations may result in delayed apoptosis and malignant proliferation. Thus, active compounds that modify the abnormal expression of genes involved in the apoptotic process may successfully act as anticancer agents. We tested the effect of compounds 4 and 6 on the expression of anti-apoptotic (Bcl-XL and Bcl-2) and pro-apoptotic (Bak and Bax) genes (Table 4, Figure 8).
(§2) Total RNA was extracted using peqGold RNAPureTM Package (Peqlab Biotechnology GmbH, Erlangen, Germany) according to the manufacturer’s instructions, and a DS-11 spectrophotometer (DeNovix, Wilmington, DE, USA) was used to measure total concentration of RNA. Reverse transcription was performed using the Maxima® First Strand cDNA Synthesis Kit (Fermentas, St. Leon-Rot, Germany), and the mix was incubated in the Tadvanced biometra product line (Analytik Jena AG, Jena, Germany) with a thermal program of 25 °C for 10 min, 85 °C for 5 min. Quantitative real-time PCR was conducted in a Quant Studio 5 real-time PCR system, (Thermo Fisher Scientific, Inc., Waltham, MA, USA), with analysis being performed in 20 µL reactions containing Power SYBR-Green PCR Master Mix (Thermo Fisher Scientific, Inc.). Cycling conditions were: 95 °C for 10 s followed by 40 cycles of denaturing at 95 °C for 15 s, and annealing and extension at 60 °C for 1 min.

[2] = tested on: Bcl-2 gene, RPMI; test: Gene expression by qRT-PCR; assay type: cell-based, human; details: 1 μM, mean 2^∆∆Ct, DMSO 4.063
Source text: as §1, §2

[3] = tested on: Bcl-2 gene, A375; test: Gene expression by qRT-PCR; assay type: cell-based, human; details: 1 μM, mean 2^∆∆Ct, DMSO 2.216
Source text: as §1, §2

[4] = tested on: BAX gene, A375; test: Gene expression by qRT-PCR; assay type: cell-based, human; details: 1 μM, mean 2^∆∆Ct, DMSO 4.063
Source text: as §1, §2

[5] = tested on: BAX gene, SK-Mel-28; test: Gene expression by qRT-PCR; assay type: cell-based, human; details: 1 μM, mean 2^∆∆Ct, DMSO 2.086
Source text: as §1, §2

[6] = tested on: BAX gene, RPMI; test: Gene expression by qRT-PCR; assay type: cell-based, human; details: 1 μM, mean 2^∆∆Ct, DMSO 3.040
Source text: as §1, §2

[7] = tested on: Bcl-2 gene, SK-Mel-28; test: Gene expression by qRT-PCR; assay type: cell-based, human; details: 1 μM, mean 2^∆∆Ct, DMSO 2.573
Source text: as §1, §2

[8] = tested on: BAK gene, RPMI; test: Gene expression by qRT-PCR; assay type: cell-based, human; details: 1 μM, mean 2^∆∆Ct, DMSO 4.163
Source text: as §1, §2

[9] = tested on: Bcl-XL gene, A375; test: Gene expression by qRT-PCR; assay type: cell-based, human; details: 1 μM, mean 2^∆∆Ct, DMSO 4.550
Source text: as §1, §2

[10] = tested on: BAK gene, SK-Mel-28; test: Gene expression by qRT-PCR; assay type: cell-based, human; details: 1 μM, mean 2^∆∆Ct, DMSO 1.383
Source text: as §1, §2

[11] = tested on: Bcl-XL gene, SK-Mel-28; test: Gene expression by qRT-PCR; assay type: cell-based, human; details: 1 μM, mean 2^∆∆Ct, DMSO 4.730
Source text: as §1, §2

[12] = tested on: chorioallantoic membrane; test: Chorioallantoic membrane (CAM) angiogenesis assay; assay type: in vivo, chicken; details: 1 µM in 0.5% DMSO
Method: CAM test also allows the assessment of a drug’s activity on tumor proliferation and distant metastasis, as well as drug toxicity. […] No anomalies were noticed in the angiogenic process after treatment with 0.5% DMSO in distilled water used as control.
The basic CAM assay protocol makes use of fertilized chicken eggs, incubated at 37 °C, under controlled humidity. On the third day of incubation (embryonic day of development, EDD), a small opening was made at one end of the eggs and 5–6 mL of albumen were removed, thus facilitating the separation of the chorioallantoic membrane. On EDD 4, a window was cut on the upper side of the egg and subsequently resealed, returning the specimens to the incubator. On EDD 7 (0 h), 10 µL of each test solution were administered inside a plastic ring previously applied on the intensely vascularized surface of the CAM [93]. All compounds were tested at a concentration of 1 µM in DMSO 0.5%, which also represented the control sample. All samples were daily applied in the same volume, for 72 h. For each analyzed sample, 5 eggs were used, and all samples were applied in triplicate. Macroscopic evaluation was daily performed in ovo by means of stereomicroscopy (ZEISS SteREO Discovery.V8, Göttingen, Germany), and all images were registered and processed by Axiocam 105 color, AxioVision SE64. Rel. 4.9.1 Software, (ZEISS Göttingen, Germany), ImageJ (ImageJ Version 1.50e, https://imagej.nih.gov/ij/index.html, accessed on 3 June 2021) and GIMP software (GIMP v 2.8, https://www.gimp.org/, accessed on 3 June 2021).

[13] = tested on: M14; test: NCI-60 screening (SRB); assay type: cell-based, human; details: five-dose; for GI50 / CC50: Homo sapiens; for CC50: read-out: LC50 (the source's name)
[14] = tested on: SNB-75; test: NCI-60 screening (SRB); assay type: cell-based, human; details: five-dose; for GI50 / CC50: Homo sapiens; for CC50: read-out: LC50 (the source's name)
[15] = tested on: Bcl-XL gene, RPMI; test: Gene expression by qRT-PCR; assay type: cell-based, human; details: 1 μM, mean 2^∆∆Ct, DMSO 18.563
Source text: as §1, §2

[16] = EDD7 to EDD10, up to 72 h post-treatment

Compound | Expression of BAK gene, Mean [1] | Expression of Bcl-2 gene, Mean [2] | Expression of Bcl-2 gene, Mean [3] | Expression of BAX gene, Mean [4] | Expression of BAX gene, Mean [5] | Expression of BAX gene, Mean [6] | Expression of Bcl-2 gene, Mean [7] | Expression of BAK gene, Mean [8] | Expression of Bcl-XL gene, Mean [9] | Expression of BAK gene, Mean [10] | Expression of Bcl-XL gene, Mean [11] | effect on angiogenesis (CAM) [12, 16] | GI50 [13] | CC50 [13] | TGI [13] | GI50 [14] | CC50 [14] | TGI [14] | Expression of Bcl-XL gene, Mean [15] | effect on angiogenesis (CAM) ([12]; after 24 h)
CCN1CCN(C(=O)[C@]23CC[C@@H](C)[C@H](C)[C@H]2C2=CC[C@@H]4[C@@]5(C)CCC(=O)C(C)(C)[C@@H]5CC[C@@]4(C)[C@]2(C)CC3)CC1 [Compound 4, N-(3-oxo-ursan-12-en-28-oyl)-ethylpiperazine] | 0.706 *** | 1.483 * | 0.7366 ** | 0.270 *** | 0.023 *** | 0.460 ** | 0.083 * | 156.243 *** | 0.500 * | 101.820 ** | 0.086 *** | no alterations were noticed in terms of angiogenesis | 0.794 µM | 3.28 µM | 1.61 µM | 1.03 µM | 17.2 µM | 3.82 µM | – | –
CCN1CCN(C(=O)[C@]23CCC(C)(C)C[C@H]2C2=CC[C@@H]4[C@@]5(C)C/C(=C/c6cccnc6)C(=O)C(C)(C)[C@@H]5CC[C@@]4(C)[C@]2(C)CC3)CC1 [Compound 6] | 0.516 *** | 0.236 *** | 1.166 | 0.590 *** | 0.140 *** | 0.640 ** | 0.083 ** | 11.853 ** | 0.300 | 91.283 *** | 0.003 *** | did not significantly alter the angiogenesis process | 1.6 µM | 6.2 µM | 3.15 µM | – | – | – | 1.050 * | weak antiangiogenic process
CCN1CCN(C(=O)[C@]23CC[C@@H](C)[C@H](C)[C@H]2C2=CC[C@@H]4[C@@]5(C)C/C(=C/c6cccnc6)C(=O)C(C)(C)[C@@H]5CC[C@@]4(C)[C@]2(C)CC3)CC1 [Compound 9, N-(2-{3-Pyridinylidene}-3-oxoursan-12-en-28-oyl)-ethylpiperazine] | – | – | – | – | – | – | – | – | – | – | – | – | – | – | – | 1.57 µM | 39.9 µM | 8.91 µM | – | –
